The assay has as its target T1, GABA A α5 (Homo sapiens, UniProt P18507+P31644).
T1 construct: expressed in transfected cells; host or cells: HEK293 cells, transiently transfected; membranes prepared from cell pellets
The experiment in a line: [3H]flumazenil competition binding, human GABA A α5β3γ2 receptors in HEK293 cell membranes. To be noted: human receptor α5β3γ2 transiently transfected in HEK293; 0.5 nM [3H]flumazenil; 1 hour at 4° C.; means of two determinations; read-out: hKi GABA A α5. Here is the method:
The affinity of compounds at GABA A receptor subtypes was measured by competition for [3H]flumazenil (85 Ci/mmol; Roche) binding to HEK293 cells expressing rat (stably transfected) or human (transiently transfected) receptors of composition α1β3γ2, α2β3γ2, α3β3γ2 and α5β3γ2.
Cell pellets were suspended in Krebs-tris buffer (4.8 mM KCl, 1.2 mM CaCl2, 1.2 mM MgCl2, 120 mM NaCl, 15 mM Tris; pH 7.5; binding assay buffer), homogenized by polytron for ca. 20 sec on ice and centrifuged for 60 min at 4° C. (50000 g; Sorvall, rotor: SM24=20000 rpm). The cell pellets were re-suspended in Krebs-tris buffer and homogenized by polytron for ca. 15 sec on ice. Protein was measured (Bradford method, Bio-Rad) and aliquots of 1 mL were prepared and stored at −80° C.
Assays were incubated to equilibrium for 1 hour at 4° C. and harvested onto GF/C uni-filters (Packard) by filtration using a Packard harvester and washing with ice-cold wash buffer (50 mM Tris; pH 7.5). After drying, filter-retained radioactivity was detected by liquid scintillation counting. Ki values were calculated using Excel-Fit (Microsoft) and are the means of two determinations.
Turning to “5-{(E)-2-[3-(4-Fluoro-phenyl)-5-methyl-isoxazol-4-yl]vinyl}-2H-pyrazole-3-carboxylic acid (2-hydroxy-1-methyl-ethyl)-amide [Example 136]”, the Ki came to 1 nM.

`Cc1onc(-c2ccccc2)c1COc1cc(C(=O)NC2CCOC2)[nH]n1` (racemic) [Example 4, Rac-5-(5-Methyl-3-phenyl-isoxazol-4-ylmethoxy)-2H-pyrazole-3-carboxylic acid (tetra-hydro-furan-3-yl)-amide]: the Ki stood at 6.6 nM. Take `Cc1onc(-c2ccc(F)cn2)c1COc1cc(C(=O)NC2CCOC2)[nH]n1` (racemic) [Example 18, Rac-5-[3-(5-Fluoro-pyridin-2-yl)-5-methyl-isoxazol-4-ylmethoxy]-2H-pyrazole-3-carboxylic acid (tetrahydro-furan-3-yl)-amide]: the Ki was determined as 1.2 nM. The figure for `CCCCc1noc(C)c1COc1cc(C(=O)NC2CCOC2)[nH]n1` (racemic) [Example 28, Rac-5-(3-Butyl-5-methyl-isoxazol-4-ylmethoxy)-2H-pyrazole-3-carboxylic acid (tetrahydrofuran-3-yl)-amide] is 5.4 nM. In the case of `CCCCc1noc(C)c1COc1cc(C(=O)NC2CCOC(C)(C)C2)[nH]n1` (racemic) [Example 37, Rac-5-(3-Butyl-5-methyl-isoxazol-4-ylmethoxy)-2H-pyrazole-3-carboxylic acid (2,2-dimethyl-tetrahydro-pyran-4-yl)-amide], the Ki was 22 nM. In the case of `Cc1onc(-c2ccccc2)c1COc1cc(C(=O)NC2CCOC2)n(C)n1` (racemic) [Example 43, Rac-2-Methyl-5-(5-methyl-3-phenyl-isoxazol-4-ylmethoxy)-2H-pyrazole-3-carboxylic acid (tetrahydro-furan-3-yl)-amide], the Ki came to 9.7 nM. Turning to `Cc1onc(-c2ccc(F)cc2)c1COc1cc(C(=O)NCC(O)C(F)(F)F)n(C)n1` (racemic) [Example 59, Rac-5-[3-(4-Fluoro-phenyl)-5-methyl-isoxazol-4-ylmethoxy]-2-methyl-2H-pyrazole-3-carboxylic acid (3,3,3-trifluoro-2-hydroxy-propyl)-amide], the Ki amounted to 1.8 nM.

Consider `Cc1onc(-c2ccc(F)cc2)c1COc1cc(C(=O)NC2CCOC2)n(C)n1` (racemic) [Example 72, Rac-5-[3-(4-Fluoro-phenyl)-5-methyl-isoxazol-4-ylmethoxy]-2-methyl-2H-pyrazole-3-carboxylic acid (tetrahydro-furan-3-yl)-amide], for which the Ki stood at 1.5 nM. Turning to `Cc1onc(-c2ccc(F)cn2)c1COc1cc(C(=O)NC2CCOC2)n(C)n1` (racemic) [Example 81, Rac-5-[3-(5-fluoro-pyridin-2-yl)-5-methyl-isoxazol-4-ylmethoxy]-2-methyl-2H-pyrazole-3-carboxylic acid (tetrahydro-furan-3-yl)-amide], the Ki was 5.9 nM. Take `CCCCc1noc(C)c1COc1cc(C(=O)NC(C)CO)n(C)n1` (racemic) [Example 87, Rac-5-(3-Butyl-5-methyl-isoxazol-4-ylmethoxy)-2-methyl-2H-pyrazole-3-carboxylic acid (2-hydroxy-1-methyl-ethyl)-amide]: the Ki was 44.7 nM. `CCCCc1noc(C)c1COc1cc(C(=O)NC2CCOC2)n(C)n1` (racemic) [Example 89, Rac-5-(3-Butyl-5-methyl-isoxazol-4-ylmethoxy)-2-methyl-2H-pyrazole-3-carboxylic acid (tetrahydro-furan-3-yl)-amide]: the Ki came out at 20.3 nM. For the compound `Cn1nc(OCc2c(-c3ccc(F)cc3)noc2CO)cc1C(=O)NC1CCOC1` (racemic) [Example 97, Rac-5-[3-(4-fluoro-phenyl)-5-hydroxymethyl-isoxazol-4-ylmethoxy]-2-methyl-2H-pyrazole-3-carboxylic acid (tetrahydro-furan-3-yl)-amide], the Ki was determined as 4.5 nM.

The values are drawn from patent US8163728B2, “Pyrazoles” (Hoffmann-La Roche Inc., priority 2009, dated 2012).
